These results are taken from patent US20120226186A1 (priority 2009, published 2012).

Test [1] has as its system nociceptive flexor reflexes. As to conditions: Willer, 1985; cited from earlier work.
For test [2] the following is noted: all 20 subjects, i.v. computer-controlled infusion.

As to `CN1CC[C@]23c4c5ccc(O)c4O[C@H]2[C@@H](O)C=C[C@H]3[C@H]1C5` [morphine], the “reflex threshold of nociceptive flexor reflexes after application of the analgetic” value in test [1] is “changed in a concentration dependent manner”. `CC(C)c1cccc(C(C)C)c1O` [propofol, 2,6-diisopropylphenol]: the “median effect compartment concentration at loss of reaction to repeated verbal commands” value in test [2] (median) amounted to 4 µg/mL. For the same compound, the “range of effect compartment concentration at loss of reaction to repeated verbal commands” value in test [2] (range) was 2 to 5 µg/mL.
